# According to paper PMC6627609, “Targeting Quorum Sensing: High-Throughput Screening to Identify Novel LsrK Inhibitors” (International Journal of Molecular Sciences, 2019):
# Counter-ions that a name gives are not always drawn.
# Biological target: LsrK (Salmonella typhimurium, UniProt Q8ZKQ6)
# Test: biochemical
# Type: biochemical, S. typhimurium
# Conditions: not given
# Chain of LsrK (Q8ZKQ6 whole entry): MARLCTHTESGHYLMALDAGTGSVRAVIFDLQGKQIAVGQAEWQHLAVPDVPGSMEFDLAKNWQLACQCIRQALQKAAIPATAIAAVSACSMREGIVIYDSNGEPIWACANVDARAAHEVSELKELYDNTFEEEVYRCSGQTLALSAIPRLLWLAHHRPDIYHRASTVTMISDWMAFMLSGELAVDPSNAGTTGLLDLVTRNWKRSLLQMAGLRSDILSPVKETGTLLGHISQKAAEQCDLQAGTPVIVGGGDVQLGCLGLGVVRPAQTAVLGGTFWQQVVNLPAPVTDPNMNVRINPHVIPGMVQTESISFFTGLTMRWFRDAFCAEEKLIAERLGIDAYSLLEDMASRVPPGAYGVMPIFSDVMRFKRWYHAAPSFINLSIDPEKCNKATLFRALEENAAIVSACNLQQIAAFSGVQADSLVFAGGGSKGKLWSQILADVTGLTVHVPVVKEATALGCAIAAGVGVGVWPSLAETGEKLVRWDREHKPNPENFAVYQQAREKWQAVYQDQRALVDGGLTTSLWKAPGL
row,Compound,inhibition at 50 µM [%]
1,C[C@]12CC[C@H](O)C[C@H]1CC[C@@H]1[C@@H]2C[C@@H](O)[C@]2(C)[C@@H](C3=CC(=O)OC3)CC[C@]12O [DIGOXIGENIN],2
2,CC(C)=CCC/C(C)=C\CO [NEROL],1
3,CCOC(=O)[N-]c1cn(N2CCOCC2)n[o+]1 [MOLSIDOMINE],0
4,O=C1O[C@H](CO)[C@@H](O)[C@H](O)[C@H]1O [GLUCONOLACTONE],0
5,C=C(C)[C@@H]1CC[C@]2(CO)CC[C@]3(C)[C@H](CC[C@@H]4[C@@]5(C)CC[C@H](O)C(C)(C)[C@@H]5CC[C@]43C)[C@@H]12 [BETULIN],4
6,COC(=O)C[C@H]1C(C)(C)C(=O)[C@@H]2CC3C4=CC(=O)O[C@@H](c5ccoc5)[C@]4(C)CC[C@@H]3[C@@]1(C)C2=O (some centres unmarked) [CARAPIN],2
7,C=C1CC[C@H](O)C/C1=C/C=C1\CCC[C@]2(C)[C@@H]([C@H](C)CCCC(C)C)CC[C@@H]12 [CHOLECALCIFEROL],90
8,Nc1nc(=O)c2nc(CNc3ccc(C(=O)N[C@@H](CCC(=O)O)C(=O)O)cc3)cnc2[nH]1 [FOLIC ACID],90
9,CN(C)[C@@H]1C(O)=C(C(N)=O)C(=O)[C@@]2(O)C(O)=C3C(=O)c4c(O)ccc(Cl)c4[C@@](C)(O)[C@H]3C[C@@H]12 [CHLORTETRACYCLINE HYDROCHLORIDE],77
10,COc1cccc(O)c1O [3-METHOXYCATECHOL],118
11,CCC(N)C(O)c1ccc(O)c(O)c1 (centres unmarked) [ETHYLNOREPINEPHRINE HYDROCHLORIDE],4
12,COc1ccc(C(=O)/C=C/c2ccccc2)cc1 [4'-METHOXYCHALCONE],12
13,CC(=O)NS(=O)(=O)c1ccc(N)cc1 [SULFACETAMIDE],0
14,CCOP(=S)(OCC)Oc1nc(Cl)c(Cl)cc1Cl [CHLORPYRIFOS],0
15,CCCCC1=NC2(CCCC2)C(=O)N1Cc1ccc(-c2ccccc2-c2nnn[nH]2)cc1 [IRBESARTAN],10
16,COc1ccc2c(=O)c(CC(=O)O)coc2c1 [ANHYD[…]],3
17,O=C1C(O)=C([C@H]2CC[C@H](c3ccc(Cl)cc3)CC2)C(=O)c2ccccc21 [ATOVAQUONE],1
18,CNC(=O)Oc1ccc2c(c1)[C@]1(C)CCN(C)[C@@H]1N2C [PHYSOSTIGMINE SALICYLATE],1
19,O=C(O)/C=C(\CC(=O)O)C(=O)O [ACONITIC ACID],1
20,CCCC(=O)Nc1ccc(OCC(O)CNC(C)C)c(C(C)=O)c1 (centres unmarked) [ACEBUTOLOL HYDROCHLORIDE],0
21,C[C@]12CC[C@@H]3c4ccc(O)cc4CC[C@H]3[C@@H]1CC[C@@H]2OC(=O)CCC1CCCC1 [ESTRADIOL CYPIONATE],0

row,Compound,inhibition at 50 µM [%]
1,CCCC(CCC)C(=O)O [VALPROATE SODIUM],0
2,CCc1ccc2c(O)c3c(cc2c1C(=O)OC)C(=O)c1c(O)ccc(O)c1C3=O [BISANHYDRORUTILANTINONE],2
3,C=CCc1ccccc1OCC(O)CNC(C)C (centres unmarked) [ALPRENOLOL],0
4,CCc1ccc(CCOc2ccc(CC3SC(=O)NC3=O)cc2)nc1 (centres unmarked) [PIOGLITAZONE HYDROCHLORIDE],0
5,CCCCCCCCCCCCCCCC(=O)OC[C@H](O)[C@H]1OC(=O)C(O)=C1O [ASCORBYL PALMITATE],28
6,CC(=O)OCC(=O)[C@H]1CC[C@H]2[C@@H]3CCC4=CC(=O)CC[C@]4(C)[C@H]3CC[C@]12C [DESOXYCORTICOSTERONE ACETATE],1
7,CC(C)CCC[C@@H](C)[C@H]1CC[C@H]2[C@@H]3CC=C4C[C@@H](O)CC[C@]4(C)[C@H]3CC[C@]12C [CHOLESTEROL],0
8,COc1cc(O)c2c(=O)cc(C)oc2c1CC=C(C)C [HETEROPEUCENIN. METHYL ETHER],1
9,CCOC(=O)[C@H](CCc1ccccc1)N[C@H]1CCc2ccccc2N(CC(=O)O)C1=O [BENAZEPRIL HYDROCHLORIDE],0
10,O=C(O)c1cc(-c2ccccc2)nc2ccccc12 [CINCHOPHEN],6
11,O=C1OC(c2ccc(O)cc2)(c2ccc(O)cc2)c2ccccc21 [PHENOLPHTHALEIN],0
12,NCCc1c[nH]cn1 [HISTAMINE DIHYDROCHLORIDE],3
13,CC[C@H]1[C@@H]2C[C@H]3[C@@H]4N(C)c5ccccc5[C@]45C[C@@H]([C@H]2[C@H]5O)N3[C@@H]1O [AJMALINE],0
14,O=C1C=C2CC3(O)COc4c(ccc(O)c4O)C3=C2C=C1O (centres unmarked) [HEMATEIN],107
15,Cc1ccnc(NS(=O)(=O)c2ccc(N)cc2)n1 [SULFAMERAZINE],2
16,O=c1cccc2n1C[C@@H]1CNC[C@H]2C1 [CYTISINE],3
17,CC(Cc1cccc(C(F)(F)F)c1)NCCOC(=O)c1ccccc1 (centres unmarked) [BENFLUOREX HYDROCHLORIDE],4
18,COc1ccc2c(c1)OCc1c-2oc2cc(OC)ccc12 [DEHYDROVARIABILIN],1
19,CN(C)[C@@H]1C(O)=C(C(N)=O)C(=O)[C@@]2(O)C(O)=C3C(=O)c4c(O)cccc4[C@@](C)(O)[C@H]3C[C@@H]12 [TETRACYCLINE HYDROCHLORIDE],114
20,O=C1C=CC(=O)c2c(O)cccc21 [JUGLONE],88
21,O=C(NC(=O)c1c(F)cccc1F)Nc1cc(Cl)c(OC(F)(F)C(F)C(F)(F)F)cc1Cl (centres unmarked) [LUFENURON],2

row,Compound,inhibition at 50 µM [%]
1,CC1(C)O[C@@H]2C[C@H]3[C@@H]4CCC5=CC(=O)CC[C@]5(C)[C@@]4(F)[C@@H](O)C[C@]3(C)[C@]2(C(=O)CCl)O1 [HALCINONIDE],0
2,CCOC(=O)N1CCC(=C2c3ccc(Cl)cc3CCc3cccnc32)CC1 [LORATADINE],2
3,CN(C)CCCO[C@@H]1[C@H]2OC(C)(C)O[C@H]2O[C@@H]1[C@H](O)CO [AMIPRILOSE],2
4,C[C@@H]1O[C@@H](O[C@H]2[C@H](Oc3cc(O)c4c(=O)cc(-c5ccc(O)cc5)oc4c3)O[C@H](CO)[C@@H](O)[C@@H]2O)[C@H](O)[C@H](O)[C@H]1O [RHOIFOLIN],2
5,CC(C)(CO)[C@@H](O)C(=O)NCCC(=O)NCCSSCCNC(=O)CCNC(=O)[C@H](O)C(C)(C)CO [PANTETHINE],0
6,O=C(O)c1cn(-c2ccc(F)cc2)c2cc(N3CCNCC3)c(F)cc2c1=O [SARAFLOXACIN HYDROCHLORIDE],0
7,CC(=O)O[C@]1(C(C)=O)CC[C@H]2[C@@H]3C=C(Cl)C4=CC(=O)[C@@H]5C[C@@H]5[C@]4(C)[C@H]3CC[C@@]21C [CYPROTERONE ACETATE],0
8,Cc1cccc(C)c1NC(=O)c1ccccc1C(=O)O [FTAXILIDE],4
9,COc1cc(-c2coc3cc(O[C@@H]4O[C@H](CO)[C@@H](O)[C@H](O)[C@H]4O)c(OC)c(O)c3c2=O)cc(O)c1OC [IRIDIN],1
10,CCN(CC)C(=S)SSC(=S)N(CC)CC,154
11,c1ccc2c(c1)sc1ccccc12 [DIBENZOTHIOPHENE],0
12,Oc1ccc(O)cc1 [HYDROQUINONE],0
13,O=c1c(-c2ccc(O)cc2)coc2cc(O)cc(O)c12 [GENISTEIN],2
14,OCCN(CCO)c1nc(N2CCCCC2)c2nc(N(CCO)CCO)nc(N3CCCCC3)c2n1 [DIPYRIDAMOLE],2
15,CC(=O)O[C@H]1C[C@@H]2CC[C@@H]3[C@H](CC[C@@]4(C)[C@H]3C[C@H]([N+]3(C)CCCCC3)[C@@H]4OC(C)=O)[C@@]2(C)C[C@@H]1[N+]1(C)CCCCC1 [PANCURONIUM BROMIDE],0
16,Cc1noc(NS(=O)(=O)c2ccc(N)cc2)c1C [SULFISOXAZOLE],1
17,Nc1ncnc2c1ncn2[C@H]1C[C@H](O)[C@@H](CO)O1 [DEOXYADENOSINE],3
18,NCC(=O)c1ccccc1 [PHENACYLAMINE HYDROCHLORIDE],1
19,C[C@H]1[C@H](C)CC[C@]2(C(=O)O)CC[C@]3(C)C(=CC[C@@H]4[C@@]5(C)C[C@@H](O)[C@H](O)[C@@](C)(CO)[C@@H]5CC[C@]43C)[C@H]12 [ASIATIC ACID],2

# Same assay, conditions: 50 µM
row,Compound,Inhibition (%)
1,OC[C@H]1O[C@H](OCC2O[C@@H](O)[C@H](O)[C@@H](O)[C@@H]2O)[C@H](O)[C@@H](O)[C@H]1O (some centres unmarked) [MELIBIOSE],3
2,CC(=O)Oc1c(C)cccc1C(=O)O [CRESOPIRINE],1
3,COc1cc(OC)c(C(C)=O)c(OC)c1 [METHYLXANTHOXYLIN],4
4,O=[N+]([O-])c1ccc(O)c([N+](=O)[O-])c1 [2.4-DINITROPHENOL],4
5,CC(=O)O[C@H]1CC[C@@]2(C)C(=CC=C3[C@@H]4CC[C@H]([C@H](C)/C=C/[C@H](C)C(C)C)[C@@]4(C)CC[C@@H]32)C1 [ERGOSTEROL ACETATE],2
6,O=c1cccc2ccc(O)c(O)c2c1O [PYROGALLIN],101
7,CC1=C(/C=C/C(C)=C/C=C/C(C)=C\C(=O)O)C(C)(C)CCC1 [ISOTRETINON],1
8,CC(=O)Oc1cccc(C)c1 [meta-CRESYL ACETATE],1
9,C[C@@H]1CC[C@@]2(OC1)O[C@H]1C[C@H]3[C@@H]4CC[C@H]5C[C@@H](O)CC[C@]5(C)C4=CC[C@]3(C)[C@H]1[C@@H]2C [3beta-HYDROXYISOALLOSPIROST-9(11)-ENE],2
10,GARLICIN,10
11,CC(=O)O[C@H]1CC[C@]2(C)[C@H]3CC[C@@]4(C)[C@H](c5ccoc5)OC(=O)[C@H]5O[C@]54[C@]3(C)[C@H](OC(C)=O)C[C@H]2C1(C)C [3beta-ACETOXYDEOXODIHYDROGEDUNIN],2
12,C=CC(C1=CC(=O)C(OC)=CC1=O)c1ccc(O)cc1 (centres unmarked) [DALBERGIONE. 4-METHOXY-4'-HYDROXY-],90
13,C=CCc1cc(OC)c2c(c1OC)OCO2 [APIOLE],1
14,O=C(O)c1nc2cc(Cl)c(Cl)cc2nc1O [6.7-DICHLORO-3-HYDROXY-2-QUINOXALINECARBOXYLIC ACID],1
15,O=C([O-])c1ccccc1-c1c2cc(I)c(=O)c(I)c-2oc2c(I)c([O-])c(I)cc12.[Na+].[Na+] [ERYTHROSINE SODIUM],69
16,CCC(Cc1c(I)cc(I)c(N)c1I)C(=O)O (centres unmarked) [IOPANIC ACID],16
